Entries after “also recorded” stand apart in the source; their conditions may differ.
Experiments:
[1] = system: human patients suffering from relapsing multiple sclerosis (RMS); experiment: Phase II RMS study: HRQoL SF-36 Physical Component Summary score; type: in vivo; conditions: for Difference in LS means of CFB in PCS score vs placebo: week 24, MMRM
Experimental: Analysis of Primary Endpoint
(§1) Primary and secondary efficacy endpoints were analysed based on the modified intention-to-treat (mITT) analysis set, consisting of all randomized patients with at least one available baseline and one post-baseline MRI assessment. […] For each endpoint, rate ratio (RR; null-hypothesis RR=1.0) adjusted for baseline disease activity was reported together with associated 95% CI and p-value. The T2 lesion endpoint was analysed similarly. Dose-response relationships between evobrutinib treatment dose and primary and key secondary endpoints were assessed for linear and monotonic trend. The analysis of CFB in cube root of volume of T2 lesions at Week 24 was based on a mixed-effect model for repeated measures, with fixed effects for treatment, week of visit, and treatment-by-week interaction, random effect for subject, and adjustment for baseline cube root of lesion volume. CFB in SF-36 score at Week 24 was analysed similarly. Descriptive statistics were used to further describe the study outcomes.

[2] = Phase II RMS study: safety (adverse events, laboratory) over 24 weeks; type: in vivo
Experimental: (§2) The assessing Investigator and central MRI reader were treatment blinded.
Safety profile of the IMP was assessed through the recording, reporting and analysis of baseline medical conditions; AEs; physical examination findings including vital signs, ECGs, and laboratory tests (including Ig and subclass concentration and B, NK, and T cell counts). Comprehensive assessment of any apparent toxicity experienced by each subject was performed from the time of giving informed consent and throughout the trial. The Investigator was to report any AEs, whether observed by the Investigator or reported by the subject.
Adverse Event: An AE was any untoward medical occurrence in a subject or clinical investigation subject administered a pharmaceutical product, regardless of causal relationship with this treatment. An AE could therefore be any unfavorable and unintended sign (including an abnormal laboratory finding), symptom, or disease temporally associated with the use of a medicinal product, whether or not considered related to the medicinal product.
The Investigator was required to grade the severity or toxicity of each AE. Investigators referenced the National Cancer Institute-Common Terminology Criteria for AEs (NCI-CTCAE), Version 4.03 (publication date: 14 Jun. 2010) a descriptive terminology provided in the Manual of Procedures that can be used for AE reporting.
A general grading (severity/intensity; hereafter referred to as severity) scale was provided at the beginning of the above referenced document, and specific event grades were also provided. Only if a particular AE's severity was not specifically graded by the guidance document, then the Investigator was to use the general NCI-CTCAE definitions of Grade 1 through Grade 5 following his or her best medical judgment. The 5 general grades are: • Grade 1 or Mild • Grade 2 or Moderate • Grade 3 or Severe • Grade 4 or Life-threatening • Grade 5 or Death.
Serious Adverse Events: An SAE is any untoward medical occurrence that at any dose: • Results in death. • Is life-threatening. (Note: The term “life-threatening” refers to an event in which the subject is at risk of death at the time of the event, not an event that hypothetically might have caused death if it was more severe) • Requires inpatient hospitalization or prolongs an existing hospitalization, except in the case of hospitalizations due to protocol-defined relapses. • Results in persistent or significant disability or incapacity. • Is a congenital anomaly or birth defect. • Is otherwise considered to be medically important.

[3] = Phase I Part 2: plasma pharmacokinetics Day 1 and Day 14 of once daily dosing; type: in vivo, human; conditions: for MRT: human, plasma, oral
Experimental: To test dose proportionality, PK parameters were analyzed graphically as AUC/dose and Cmax/dose and via a power model (PK parameter=α*dose^β) approach with log-transformed PK parameters as the dependent variable and log-transformed dose as the independent variable.

[4] = system: human patients suffering from relapsing multiple sclerosis (RMS); experiment: Phase II RMS study: qualified relapse assessment (ARR, relapse-free status); type: in vivo; conditions: for Qualified relapse rate, adjusted / Qualified relapses, number of relapses: 24 weeks; for Proportion relapse-free / Unadjusted ARR: Week 24
Experimental: as §2
Subjects were assessed for MS relapse at visits beginning at Week 4. Relapse was also assessed at any Unscheduled Visit for Neurological Worsening and Relapse Assessment. For subjects in the OLE Period, MS relapse was assessed at all visits. A qualifying relapse was defined as new, worsening or recurrent neurological symptoms attributed to MS that last for at least 24 hours without fever or infection, or adverse reaction to prescribed medication, preceded by a stable or improving neurological status of at least 30 days. The relapse must have been accompanied by new clinical signs (i.e., changes in the neurological examination or an increase in EDSS score).
The protocol specified that all cases of potential relapse were to be objectively confirmed by the Investigator regardless of whether they were identified during a scheduled or unscheduled visit. Any assessments needed to confirm the relapse were to be performed, and details of the relapse were to be documented within the relevant section(s) of the eCRF.
Additional Secondary Endpoints
Analysis of secondary endpoints was based on the mITT analysis set. […] Descriptive statistics for ARR were calculated for each treatment group as the total number of qualified relapses divided by the number of subject-years of observation.
as §1

[5] = 75 mg QD, listed as evobrutinib
[6] = multiple-dose study Day 1, 25 mg, geometric mean
[7] = multiple-dose study Day 1, 75 mg, geometric mean
[8] = multiple-dose study Day 1, 200 mg, geometric mean
[9] = multiple-dose study Day 14, 25 mg once daily, geometric mean
[10] = multiple-dose study Day 14, 75 mg once daily, geometric mean
[11] = multiple-dose study Day 14, 200 mg once daily, geometric mean

Compound: C=CC(=O)N1CCC(CNc2ncnc(N)c2-c2ccc(Oc3ccccc3)cc2)CC1 [Evobrutinib, 1-(4-(((6-amino-5-(4-phenoxyphenyl)pyrimidin-4-yl)amino)methyl)piperidin-1-yl)prop-2-en-1-one]
- Change in SF-36 PCS score from baseline to week 24, Mean ± SD ([1]; 25 mg QD): 0.8 ± 5.93
- Change in SF-36 PCS score from baseline to week 24, Median ([1]; 25 mg QD): 0.3
- Difference in LS means of CFB in PCS score vs placebo ([1]; 25 mg QD): 1.73
- Change in SF-36 PCS score from baseline to week 24, Mean ± SD ([1]; 75 mg BID): 1.1 ± 5.22
- Change in SF-36 PCS score from baseline to week 24, Median ([1]; 75 mg BID): 1.3
- Difference in LS means of CFB in PCS score vs placebo ([1]; 75 mg BID): 1.93
- Change in SF-36 PCS score from baseline to week 24, Mean ± SD ([1]; 75 mg QD): 1.5 ± 7.09
- Change in SF-36 PCS score from baseline to week 24, Median ([1]; 75 mg QD): 0.6
- Difference in LS means of CFB in PCS score vs placebo ([1]; 75 mg QD): 1.95
- Change in SF-36 PCS score from baseline to week 24, Mean ± SD [1, 5]: 1.5±7.09
- Deaths or additional emerging safety signals ([2]; 24 weeks): no deaths or additional emerging safety signals
- TEAEs of grade 4 or 5 ([2]; human, in vivo, 24 weeks): no TEAEs of grade 4 or 5
- Hematological abnormalities, such as lymphopenia ([2]; in vivo): None of the three evobrutinib doses were associated with hematological abnormalities, such as lymphopenia
- Hy's Law cases among Grade 3 transaminase elevations ([2]; in vivo): no Hy's Law cases
- Infection rates versus placebo ([2]; in vivo): lower than those with placebo
- Dose proportionality of AUC and Cmax ([3]; 25-500 mg single dose, 25-200 mg once daily multiple dose): demonstrated following multiple dosing of 25-200 mg; also recorded: dose-proportional over a 25-500 mg single-dose range and a 25-200 mg once daily multiple-dose range
- Time dependency of PK ([3]; 14 days repeated daily dosing): no time dependency
- MRT ([3]; 25 mg, multiple-dose study Day 1, 25 mg, geometric mean): 1.66 h
- MRT ([3]; 25 mg, multiple-dose study Day 14, 25 mg once daily, geometric mean): 1.81 h
- MRT ([3]; 75 mg, multiple-dose study Day 1, 75 mg, geometric mean): 1.67 h
- MRT ([3]; 75 mg, multiple-dose study Day 14, 75 mg once daily, geometric mean): 1.79 h
- MRT ([3]; 200 mg, multiple-dose study Day 1, 200 mg, geometric mean): 1.72 h
- MRT ([3]; 200 mg, multiple-dose study Day 14, 200 mg once daily, geometric mean): 1.92 h
- AUC0−∞ [3, 6]: 123 ng·h/mL
- Cmax [3, 6]: 99.7 ng/mL
- T1/2 [3, 6]: 1.70 h
- AUC0−∞ [3, 7]: 325 ng·h/mL
- CL/F [3, 7]: 3850 mL/min
- Cmax [3, 7]: 254 ng/mL
- T1/2 [3, 7]: 1.86 h
- AUC0−∞ [3, 8]: 1110 ng·h/mL
- Cmax [3, 8]: 797 ng/mL
- T1/2 [3, 8]: 2.49 h
- AUC0−24h [3, 9]: 126 ng·h/mL
- Cmax [3, 9]: 80.4 ng/mL
- T1/2 [3, 9]: 1.59 h
- AUC0−24h [3, 10]: 345 ng·h/mL
- Cmax [3, 10]: 252 ng/mL
- T1/2 [3, 10]: 2.29 h
- AUC0−24h [3, 11]: 1,210 ng * h/mL
- Cmax [3, 11]: 782 ng/mL
- T1/2 [3, 11]: 3.62 h
- Accumulation with multiple dosing ([3]; once daily, 14 days): no accumulation with multiple dosing; also recorded: without accumulation after multiple dosing
- t½ after multiple dosing ([3]; range across 25-200 mg once daily): 1.6 to 3.6 h
- Qualified relapse rate, adjusted ([4]; 25 mg QD): 0.47
- Qualified relapses, number of relapses ([4]; 25 mg QD): 12 n
- Proportion relapse-free ([4]; 25 mg QD): 76.0%
- Unadjusted ARR ([4]; 25 mg QD): 0.52
- Proportion relapse-free ([4]; 25 mg QD, listed as evobrutinib): 76%
- Qualified relapse rate, adjusted ([4]; 75 mg BID): 0.07
- Qualified relapses, number of relapses ([4]; 75 mg BID): 2 n
- Proportion relapse-free ([4]; 75 mg BID): 86.8%
- Unadjusted ARR ([4]; 75 mg BID): 0.08
- Proportion relapse-free ([4]; 75 mg BID, listed as evobrutinib): 87%
- Qualified relapse rate, adjusted ([4]; 75 mg QD): 0.10
- Qualified relapses, number of relapses ([4]; 75 mg QD): 3 n
- Proportion relapse-free ([4]; 75 mg QD): 88.2%
- Unadjusted ARR ([4]; 75 mg QD): 0.13
- Proportion relapse-free [4, 5]: 88%

Source: patent US12251382B2, “Substituted amino-pyrimidine compound for use in a method for treatment and prevention of multiple sclerosis” (Merck Patent GmbH, priority 2018, dated 2025)
